Measurements taken from article PMC4976923, “Potent Allosteric Dengue Virus NS5 Polymerase Inhibitors: Mechanism of Action and Resistance Profiling” (PLoS Pathogens, 2016).
Read-outs that look alike come from different tables or passages of the source.

Experiments:
DENV4 FL NS5 [1] = biological target: T1, DENV4 FL NS5 (Dengue virus type 4, UniProt P09866); experiment: biochemical
T1 construct: 100 nM DENV FL NS5 protein was added; made in house
Method: (§1) DENV1-4 FL NS5 dnI assays were performed as described previously. Briefly, compounds from 0–20 or -100 μM concentrations are two-fold serially diluted into 384-well black opaque plates (Corning Costar), after which 100 nM DENV FL NS5 protein was added and the plates incubated at RT for 20 min. RNA and ATTO-CTP, ATP, GTP and UTP were then added and the plates incubated for another 120 min. […] For order-of-addition experiments, DENV4 FL NS5 was incubated for one hour at RT with RNA, ATP, and GTP or RNA, ATP, GTP and ATTO-CTP, followed by exposure to serially diluted compounds for 20 min at RT. The missing components (ATTO-CTP and UTP or UTP alone) were added and the reactions continued for 120 min after which STOP buffer was added as before. All datapoints were performed in duplicate wells. Each compound was tested at least twice.
(§2) 2 Co mpound testing with DENV dn I FAPA assays. Final dn I assa y reaction mixtures
(§3) 3 contained 100 nM DENV 5 ´UTR-L-3´UTR IVT RNA, 20 µ M ATP, 20 µM GTP, 20 µM
(§4) 4 UTP, 5 µM ATTO -CTP, and 100 nM of DENV FL NS5 protein in 15 µl in assa y buffer
(§5) 5 comprising 50 mM Tris/ HCl, pH 7.5, 10 mM KCl, 1 mM MgCl2, 0.3 mM MnCl2 (DENV2
(§6) 6 and 4) or 1 mM MnCl 2 (DENV1 and 3), 0.001% Triton- X-100 and 10 µ M cystein e [ 1] . To
(§7) 7 perform dose-respons e inhibition measurements, compounds from 0- 20 or - 100 µM
(§8) 8 concentr ations are two -fold seriall y diluted into 384-well black opaqu e plat es (Corning
(§9) 9 Costar), after which 100 nM DENV FL NS5 protein was added into resp ect ive wells. The
(§10) 10 plates wer e sealed, b riefl y shak en and centrif uged at 1500 rpm for 30 sec and incubated at RT
(§11) 11 for 15 min. Thereafter,RNA and ATTO -CTP, ATP, GTP and UTP were added to the wells to
(§12) 12 start the reactions. The pl ates wer e re-seal ed, shaken and centrifuged as before, followed b y
(§13) 13 incubation RT for 120 min.
(§14) 15 intestinal phosphatase (CIP), re- incubation at RT for 60 min and read on a Tecan Safire II
(§15) 16 microplate reader. For o r der-of-addition experiments, DENV4 FL NS5 was incubated for one
(§16) 17 hour at RT with RNA, ATP, and GTP or RNA, ATP, GTP and ATTO-CTP, followed by
(§17) 18 exposure to seriall y dilut ed compounds for 20 mi n at RT. The missing components (ATTO-
(§18) 19 CTP and UTP or UTP alone) were added and the reactions continued for 120 min after which
(§19) 20 STOP buffer was added as before. All datapoints were performed in duplicate wells. Each
21 compound was tested at l east twice. […]

DENV1 FL NS5 = biological target: T2, DENV1 FL NS5 (Dengue virus type 1, UniProt P17763); experiment: DENV1 FL NS5 de novo initiation FAPA assay; assay type: biochemical; details: one experiment; read-out: DENV FL NS5 de novo initiation FAPA, IC50, DENV1
T2 construct: 100 nM DENV FL NS5 protein was added; made in house
Method: (§20) DENV1-4 FL NS5 dnI assays were performed as described previously. Briefly, compounds from 0–20 or -100 μM concentrations are two-fold serially diluted into 384-well black opaque plates (Corning Costar), after which 100 nM DENV FL NS5 protein was added and the plates incubated at RT for 20 min. RNA and ATTO-CTP, ATP, GTP and UTP were then added and the plates incubated for another 120 min. Reactions were stopped with buffer containing 25 nM CIP, re- incubated at RT for 60 min and read on a Tecan Safire II microplate reader. For order-of-addition experiments, DENV4 FL NS5 was incubated for one hour at RT with RNA, ATP, and GTP or RNA, ATP, GTP and ATTO-CTP, followed by exposure to serially diluted compounds for 20 min at RT. The missing components (ATTO-CTP and UTP or UTP alone) were added and the reactions continued for 120 min after which STOP buffer was added as before. All datapoints were performed in duplicate wells. Each compound was tested at least twice.
as §2, §3, §4, §5, §6, §7, §8, §9, §10, §11, §12
(§21) 13 incubation RT for 120 min. Reactions were stopped by addition of 10 µl of 2.5X STOP
(§22) 14 buffer (200 mM NaCl, 25 mM MgCl2, 1.5M DEA, pH 10; Promega) with 25 nM calf
as §14, §15, §16, §17, §18, §19
(§23) 21 compound was tested at l east twice.
(§24) 23 Compound testing in DENV1-4 infected cells by high content imaging. Approximatel y 7
(§25) 24 × 10^3 A549 cells per well were s eeded into 384-well plates in Ham’s F-12K medium

DENV2 FL NS5 = biological target: T3, DENV2 FL NS5 (Dengue virus type 2, UniProt P14340); experiment: DENV2 FL NS5 de novo initiation FAPA assay; assay type: biochemical; details: one experiment; read-out: DENV FL NS5 de novo initiation FAPA, IC50, DENV2
T3 construct: made in house
Method: as §1, §2, §3, §4, §5, §6, §7, §8, §9, §10, §11, §12, §13, §14, §15, §16, §17, §18, §19, §23, §24, §25

DENV3 FL NS5 = biological target: T4, DENV3 FL NS5 (Dengue virus type 3, UniProt Q6YMS4); experiment: DENV3 FL NS5 de novo initiation FAPA assay; assay type: biochemical; details: one experiment; read-out: DENV FL NS5 de novo initiation FAPA, IC50, DENV3
T4 construct: 100 nM DENV FL NS5 protein was added; made in house
Method: as §20, §2, §3, §4, §5, §6, §7, §8, §9, §10, §11, §12, §21, §22, §14, §15, §16, §17, §18, §19, §23, §24, §25

[2] = test system: DENV2-NGC Ren-LUC Replicon in HuH-7; experiment: Stable HuH-7 DENV2-NGC renilla luciferase replicon assay; assay type: cell-based; details: Dengue virus, DENV2, Huh-7, 48 h, read-out: HuH-7 DENV Replicon, DENV2, EC50
in vitro = assay type: cell-based; details: human, HuH-7 (DENV2 replicon cells); 48 hr; ATP levels
Method: A549, BHK-21 and Huh7 cells bearing stable DENV2 sub-genomic replicon or transiently electroporated DENV2-NGC replicon or infectious virus cDNAs were seeded into 384-well microplate (3,000 cells per well). After over-night incubation at 37°C with 5% CO2, the cells were treated with 2-fold serially diluted compounds, starting from 20 or 50 μM. At 48 hr of post-incubation, renilla luciferase activities were measured with the ViviRen live-cell substrate (Promega, USA) according to the manufacturer’s protocol. CellTiter-Glo reagent (Promega, USA) was then added to determine cytotoxic effects of compounds. For the HCV replicon assay, Huh-7.5 cells harboring the HCV replicon were seeded into a 96-well microplate (20,000 cells per well). At 48 hr after compound treatment, cells were assayed for firefly luciferase activity by using a Bright-Glo luciferase assay (Promega, USA). NITD-008, a nucleoside inhibitor of DENV and HCV was added as a control.

DENV4 FL NS5 [3] = biological target: T1, DENV4 FL NS5; experiment: biochemical; details: Enzyme + compound; averaged from >3 experiments; read-out: Elongation IC50
DENV4 FL NS5 S797A = biological target: T5, DENV4 FL NS5 S797A (Dengue virus type 4, UniProt P09866, S3284A); assay type: biochemical; details: dnI FAPA; one experiment
T5 construct: Site-directed alanine mutations of DENV4 FL NS5 cDNA; made in house

DENV4 FL NS5 W803A = biological target: T6, DENV4 FL NS5 W803A (Dengue virus type 4, UniProt P09866, W3291A); assay type: biochemical; details: dnI FAPA; one experiment
T6 construct: Site-directed alanine mutations of DENV4 FL NS5 cDNA; made in house

DENV4 FL NS5 [4] = biological target: T1, DENV4 FL NS5; assay type: biochemical; details: for mode of inhibition with respect to viral RNA substrate / mode of inhibition with respect to GTP: Lineweaver-Burk plots; for mode of inhibition with respect to viral RNA substrate: 0–500 nM RNA; for mode of inhibition with respect to GTP: 0–50 μM GTP
[5] = biological target: DENV4 RdRp domain (aa 268–900) (Dengue virus type 4, UniProt P09866); experiment: Thermo-denaturation assay, recombinant RdRp domain; assay type: binding; details: +50 μM compound; DMSO control 50
Method: (§26) Site-directed alanine mutations of DENV4 FL NS5 cDNA were performed using pET28-D4-MY01-22713 NS5FL [23] as a template, according to the manufacturer’s protocol (Stratagene, USA). Protein expressions of DENV1-4 FL NS5 and their stability analyses by thermo-fluorescence were performed as described previously. DENV de novo initiation and elongation FAPA assays were earlier described. […]
(§27) 6 Fi g .5. Ef fects of N -pocket compounds on DENV pol ymerase thermo-stability. Melting
(§28) 7 temperatur e (Tm) w as ass essed b y thermo-d enatur ation in presence of the S YPRO Oran ge
(§29) 8 dye as described in Materials and Methods. (A-F) Representative meltin g curves of DEN V4
(§30) 10 inhibitors or 5 % DMSO control. […]
(§31) 16 controls treated with DMSO.

DENV4 FL NS5 [6] = experiment: Thermo-denaturation assay, recombinant FL NS5; assay type: binding; details: +50 μM compound; DMSO control 42.5
Method: as §26, §27, §28, §29, §30, §31

DENV4 FL NS5 [7] = biological target: T1, DENV4 FL NS5; details: Enzyme + compound 20 min, then ssRNA and nucleotides, 2 hr; read-out: DENV FL NS5 de novo initiation FAPA, IC50, DENV4; cited from earlier work
[8] = Enzyme + compound 20 min, then ssRNA and nucleotides, 2 hr, averaged from ≥3 experiments, read-out: DENV FL NS5 de novo initiation FAPA, IC50, DENV4
[9] = representative dose-response curve, read-out: IC50, best-fit value of representative curve (Fig 1A in S1 Text)

Structure (SMILES) | IC50 (DENV4 FL NS5 [1]; [8]) | IC50 (DENV4 FL NS5 [1]; [9]) | IC50 (DENV1 FL NS5) | IC50 (DENV2 FL NS5) | IC50 (DENV3 FL NS5) | EC50 [2] | CC50 (in vitro) | IC50 (DENV4 FL NS5 [1]; compound added to enzyme-dsRNA complex, read-out: de novo IC50, order of addition: [Enzyme + RNA+ ATP+GTP+ATTO-CTP] + compound) | IC50 (DENV4 FL NS5 [1]; compound added to enzyme-dsRNA complex, read-out: de novo IC50, order of addition: [Enzyme + RNA+ATP+GTP] + compound) | IC50 (DENV4 FL NS5 [1]; compound added to pre-formed enzyme-ssRNA complex, read-out: de novo IC50, order of addition: [Enzyme + RNA] + compound) | IC50 (DENV4 FL NS5 [3]) | S797A IC50 (DENV4 FL NS5 S797A) | W803A IC50 (DENV4 FL NS5 W803A) | mode of inhibition with respect to viral RNA substrate (DENV4 FL NS5 [4]) | mode of inhibition with respect to GTP (DENV4 FL NS5 [4]) | Protein melting temperature Tm with compound, RdRp domain [5] | Protein melting temperature Tm with compound, FL NS5 (DENV4 FL NS5 [6]) | mode of inhibition at high GTP concentrations (DENV4 FL NS5 [4]; high GTP concentrations) | IC50 (DENV4 FL NS5 [7])
COc1ccc(CC(=O)O)cc1-c1ccc(Cl)s1 [Compound 3i] | 30700 ± 9400 nM | 30900 nM | 46600 nM | 37200 nM | 66800 nM | > 100000 nM | > 100000 nM | – | – | – | – | – | – | – | – | – | – | – | –
Nc1nc2c(ncn2[C@@H]2O[C@H](COP(=O)(O)OP(=O)(O)OP(=O)(O)O)C[C@H]2O)c(=O)[nH]1 [3'dGTP, reference compound] | 790 ± 200 nM | 513 nM | 520 nM | 620 nM | 270 nM | > 100000 nM | > 100000 nM | 710 ± 200 nM | 740 ± 260 nM | 440 ± 20 nM | 430 ± 290 nM | retained the same IC50 | retained the same IC50 | non-competitive | competitive | – | – | – | –
O=C(O)Cc1cc(CC(=O)O)cc(-c2ccc(C#CCO)s2)c1 [Compound 15] | – | – | 300 nM | 2200 nM | 460 nM | > 100000 nM | > 100000 nM | – | – | – | – | – | – | uncompetitive | uncompetitive inhibition | 65 °C | 52 °C | non-competitive mode of inhibition | –
COc1cc(OC)c(-c2ccc(C#CCO)s2)cc1C(=O)NS(=O)(=O)c1ccccc1 [Compound 26] | – | 115 nM | 75 nM | 145 nM | 57 nM | 21000 nM | > 100000 nM | – | – | – | – | – | – | – | – | – | – | – | 251 ± 129 nM
COc1cc(C)c(C(=O)NS(=O)(=O)c2ccccc2)cc1-c1ccc(C#CCO)s1 [Compound 25] | – | 281 nM | 33 nM | 106 nM | 40 nM | 11400 nM | > 100000 nM | – | – | – | – | – | – | – | – | – | – | – | 165 ± 108 nM
O=C(O)Cc1cc(CC(=O)O)cc(-c2ccc(Cl)s2)c1 [Compound 11] | – | – | 7100 nM | 39700 nM | 10700 nM | > 100000 nM | > 100000 nM | – | – | – | – | – | – | – | – | – | – | – | –
COc1ccc(CC(=O)O)cc1-c1ccccc1 [Compound 3] | – | 788000 nM | 769000 nM | 769000 nM | 796000 nM | > 100000 nM | > 100000 nM | – | – | – | – | – | – | – | – | – | – | – | 733000 ± 10600 nM
